Measured values reported in patent US20030199584A1, “Reduction of hair growth” (priority 2002, published 2003).
Like-named read-outs stand apart in the source and are kept apart here.

Experiments:
[1] = In vitro diffusion (Franz) skin penetration assay, Protocol 1, 14C-DFMO through hamster skin; type: in vitro ADME, Golden, Syrian hamsters
Excerpt: (§1) An in vitro diffusion assay was established based on that reported by Franz. Dorsal skin from Golden, Syrian hamsters or Hartley guinea pigs is clipped with electric clippers, trimmed to the appropriate size and placed in a glass diffusion chamber. The receptor fluid consisted of phosphate buffered saline, an isotonic solution for maintaining cell viability and 0.1% sodium azide, a preservative and was placed in the lower chamber of the diffusion apparatus such that the level of the receptor fluid was in parallel with the mounted skin. After equilibration at 37° C. for at least 30 minutes, 10 μl or 20 μl of the test or control formulation containing equal amounts of DFMO were added to the surface of the skin and gently spread over the entire surface with a glass stirring rod. A radiotracer amount of 14C-DFMO (0.5-1 microCurie per diffusion chamber) was used in the formulations to assess DFMO penetration. Penetration of DFMO was determined by removing an aliquot (400 μL) periodically throughout the course of the experiment, and quantitating radioactivity using liquid scintillation.

[2] = In vitro diffusion skin penetration assay of DFMO, skin species not named; type: in vitro ADME, Golden, Syrian hamsters or Hartley guinea pigs; conditions: for Fold-Enhancement DDP/Control: DDP 10%; for % Applied Dose of DFMO penetrated: cream formulation 1 with or without DDP 10%
Excerpt: as §1

[3] = type: in vitro ADME; conditions: 1 %
Experimental: DFMO skin penetration was assessed using a modified protocol of the Franz diffusion assay. In this experiment either the SP33 formulation (without DFMO) or the SP33 formulation prepared with dipropylene glycol dimethylether (DPGDME) again with out DFMO was applied to the skin for […]. The formulations were then removed from the skins' surfaces, which were dried with a cotton swab. The hydroalcoholic formulation 1—containing 1% DFMO with radiotracer ^14C-DFMO—was applied to the skin and gently spread over the surface with a glass, stirring rod. Aliquots of the receptor fluid were removed at 3, 6 and 24 hours after DFMO application and penetration was determined using liquid scintillation. As shown in Table 6 enhancement of DFMO penetration through the skin occurred when dipropylene glycol […] was substituted for dipropylene glycol.

[4] = In vitro skin penetration assay, Protocol 2 (skin pretreated 15 minutes with formulation without DFMO); type: in vitro ADME, Golden, Syrian hamsters or Hartley guinea pigs; conditions: Tables 9 and 10
Excerpt: as §1
This procedure is similar to that described in Protocol 1 with the exception that prior to the application of radiolabeled DFMO, the skin surfaces received 1 ml of the formulation without DFMO. After 15 minutes the formulation was removed and the surface of the skin was gently dried with a cotton swab. […]

[5] = DFMO skin penetration after overnight pretreatment of the skin with fatty acid; type: in vitro ADME; conditions: skin pretreated overnight; DFMO in hydroalcoholic formulation; receptor fluid measured hourly over eight hours (FIG. 1, FIG. 2)
Excerpt: as §1
Further confirmation of the cis fatty acid action on skin penetration was obtained by pretreating the skin overnight with oleic acid or elaidic acid. The following day DFMO was applied to the surface of the skin in the hydroalcoholic formulation.

Compound: CC12CCC(CC1)C(C)(C)O2 [Cineole, 1,8-cineole]
- Fold Enhancement of DFMO penetration ([1]; Golden Syrian, hamster, 10 %): 1.91 ± .51 fold

Compound: CCCCCCCCCCCCN1CCCC1=O [DDP, 1-dodecyl-2-pyrrolidanone]
- Fold-Enhancement DDP/Control ([2]; 2 hrs): 0.41 fold
- % Applied Dose of DFMO penetrated ([2]; 2 hrs): 0.15 ± .01 % Applied Dose
- Fold-Enhancement DDP/Control ([2]; 4 hrs): 0.91 fold
- % Applied Dose of DFMO penetrated ([2]; 4 hrs): 0.52 ± .08 % Applied Dose
- Fold-Enhancement DDP/Control ([2]; 6 hrs): 2.00 fold
- % Applied Dose of DFMO penetrated ([2]; 6 hrs): 1.26 ± .24 % Applied Dose
- Fold-Enhancement DDP/Control ([2]; 24 hrs): 5.11 fold
- % Applied Dose of DFMO penetrated ([2]; 24 hrs): 9.31 ± 1.38 % Applied Dose
- Increase in skin penetration by DFMO ([2]; DDP 10% in cream base Formulation-1): ≤ 5 fold

Compound: COCC(C)OCC(C)OC (centres unmarked) [DPGDME, dipropylene glycol dimethylether]
- % Applied Dose of DFMO penetrated ([3]; 3 h): 7.71 ± 3.1 % Applied Dose
- Fold-Enhancement ([3]; 3 h): 4.64 fold
- % Applied Dose of DFMO penetrated ([3]; 6 h): 9.55 ± 3.68 % Applied Dose
- Fold-Enhancement ([3]; 6 h): 3.93 fold
- % Applied Dose of DFMO penetrated ([3]; 24 h): 10.85 ± 3.8 % Applied Dose
- Fold-Enhancement ([3]; 24 h): 3.02 fold

Compound: CCCCCCCCCCCCCC(=O)OC(C)C [IPM, isopropyl myristate]
- Effect on penetration of DFMO through the skin (in words) [4]: significantly increased the penetration of DFMO through the skin

Compound: CC(C)CCCCCCCCCCCCCCCOC(=O)CCCCCCCCCCCCCCC(C)C [Isostearyl Isosterate, isostearyl isostearate]
- Effect on penetration of DFMO through the skin (in words) [4]: significantly increased the penetration of DFMO through the skin

Compound: CC(C)[C@@H]1CC[C@@H](C)CC1=O [Menthone]
- Fold Enhancement of DFMO penetration ([1]; Golden Syrian, hamster, 10 %): 1.99 ± .40 fold

Compound: CCCCCCCC/C=C\CCCCCCCC(=O)O [Oleic Acid]
- Effect on DFMO skin penetration (in words) [1]: increase in skin penetration
- Fold Enhancement of DFMO penetration ([1]; Golden Syrian, hamster, 10 %): 2.85 ± .76 fold

Compound: CCCCCCCCCCC/C=C\CCCCC(=O)O [Petroselenic Acid]
- Fold Enhancement of DFMO penetration [1]: 1.40 ± 1.5 fold

Compound: CCCCCCCC/C=C/CCCCCCCC(=O)O [elaidic acid]
- Enhancement of DFMO skin penetration after pretreatment [5]: no increase in skin penetration of DFMO
- Effect on DFMO skin penetration (in words) [1]: devoid of DFMO penetration enhancing properties

Compound: Capric/Caprylic Triglyceride [Captex]
- Effect on DFMO skin penetration (in words) [2]: increase in DFMO skin penetration

Compound: Tween-20
- Fold Enhancement of DFMO penetration ([1]; Tween derivative 5% in Hydroalcoholic Formulation 1, hamster skin): 1.54 ± .47 fold

Compound: Tween-40
- Fold Enhancement of DFMO penetration [1]: 3.07 ± 1.65 fold

Compound: Tween-80
- Fold Enhancement of DFMO penetration [1]: 0.502 ± .14 fold
- Reduction in DFMO penetration [1]: ~50%
